Data set [1] concerns ZEAMA Sileno. The data set can be described thus: Seed treatment with safener; post-emergence herbicide application. To be noted: Final assessment; for Reduction [%] / Reduction [Difference]: Cyprosulfamide 0.5 g a.i./kg seed; for Reduction [Difference]: damage without safener - damage with safener; for HER effect + SAF (crop damage with safener): Cyprosulfamide seed treatment 0.5 g a.i./kg seed; for HER effect (crop damage, herbicide without safener): no safener. The class given is in vivo, maize. Also on record: Reduction [Difference]: scale not given here. Here is the method:
For the safener seed treatment, sufficient seeds of the respective crops (spring wheat, TRZAS; spring barley, HORVS; maize, ZEAMA) were weighed into screw top glass bottles approximately twice the volume of the seeds.
The specified safeners, formulated as wettable powder (WP) were weighed out so that the specified rates (g a.i./kg seed) would be obtained, dissolved in water (1 ml water per 10 g of seeds), and added to the seeds to produce a slurry.
The bottles were capped and then placed in an overhead shaker (set at medium speed for ca. 60 minutes) so that the seeds were evenly coated with the slurry. The bottles were uncapped and the seeds were either placed on paper and dried for an interval of 3-4 hours prior to sowing, or directly sown. Seeds were placed in sandy loam soil in pots of a diameter of 7-8 cm, covered with soil, and cultivated in a greenhouse under good growth conditions.
Post-emergence application of the specified herbicides was done when the plants had reached growth stage BBCH11-13, on two sets of plants:
a) seed treatment with safener, as described above b) no safener treatment
The herbicides were formulated as WP and sprayed onto the green parts of the plants as an aqueous suspension at an equivalent water application rate of 300 1/ha, with addition of wetting agent and adjuvants (e.g. Mero, 1.5 1/ha; ammonium sulphate, 2 kg/ha)
After application, the test plants were kept in the greenhouse under good growth conditions.
Values in the table below are mean values of at least 2 replicates.

Data set [2] deals with ZEAMA Sileno. The data set can be described thus: Tank-mix; post-emergence, crop damage with and without safener. To be noted: for HER effect + SAF / HER effect: Final assessment; for HER effect: no safener. The class given is in vivo, maize. Here is the method:
Seeds of crops (spring wheat, TRZAS; spring barley, HORVS; maize, ZEAMA) were placed in sandy loam soil in peat pots, covered with soil and cultivated in a greenhouse under good growth conditions. Two to three weeks after sowing, the test plants were treated at the 1 to 3-leaf stage. The herbicide/safener active compound combinations according to the invention, formulated as wettable powders or emulsion concentrates, and, in parallel tests, the correspondingly formulated individual active compounds were sprayed onto the green parts of the plants in various dosages using an amount of water of 300 1/ha (converted).
The pots were returned under good growing conditions in a glasshouse and a visual assessment of herbicidal effects was made at intervals from 1 to 3 weeks after herbicide application (DAT = days after treatment). Assessment was on a percentage basis in comparison with untreated control plants (0% = no injury, 100% = complete kill).

[3] abbreviates: HER 8 g a.i./ha, cyprosulfamide 50 g a.i./ha.
Setting [4] is: HER 32 g a.i./ha, cyprosulfamide 100 g a.i./ha.
Where [5] appears, read: HER dose 8 g a.i./ha + cyprosulfamide 50 g a.i./ha tank-mix.
Where [6] appears, read: HER dose 32 g a.i./ha + cyprosulfamide 100 g a.i./ha tank-mix.

Each structure is given as a SMILES string.

Turning to `COC(=O)C1C=CC(NC(=O)C2(C)CC(c3cc(Cl)cc(C#N)c3)=NO2)C1` (mixture of isomers) [Example 1.23], the “Reduction [%]” value in data set [1] (HER dose 8 g a.i./ha) was determined as 100%; in data set [1] (HER dose 32 g a.i./ha) it was 96%; in data set [2] (setting [3]) it was 60%; in data set [2] (setting [4]), 67%. The “Reduction [Difference]” value in data set [1] (HER dose 8 g a.i./ha) is reported as 50; in data set [1] (HER dose 32 g a.i./ha) it was 67; in data set [2] (setting [3]), 30; in data set [2] (setting [4]), 47. The entries for the “HER effect + SAF (crop damage with safener)” value in data set [1] (HER dose 8 g a.i./ha) and in data set [1] (HER dose 32 g a.i./ha) were 0% and 3%, respectively. Besides, the “HER effect (crop damage, herbicide without safener)” value was 50% in data set [1] (HER dose 8 g a.i./ha) and 70% in data set [1] (HER dose 32 g a.i./ha). The entries for the “HER effect + SAF” value in data set [2] (setting [5]) and in data set [2] (setting [6]) were 20% and 23%, respectively. Further, the HER effect in data set [2] (HER dose 8 g a.i./ha) came out at 50%; in data set [2] (HER dose 32 g a.i./ha), 70%.

With `CCOC(=O)C1=CCC(NC(=O)C2(C)CC(c3cccc(F)c3)=NO2)C1` (mixture of isomers) [Example 1.59], the “Reduction [%]” value was 100% in data set [1] (HER dose 8 g a.i./ha), 85% in data set [1] (HER dose 32 g a.i./ha), 100% in data set [2] (setting [3]) and 90% in data set [2] (setting [4]). The “Reduction [Difference]” value in data set [1] (HER dose 8 g a.i./ha) was determined as 20; in data set [1] (HER dose 32 g a.i./ha), 57; in data set [2] (setting [3]), 20; in data set [2] (setting [4]), 60. Further, the “HER effect + SAF (crop damage with safener)” value in data set [1] (HER dose 8 g a.i./ha) is listed as 0%; in data set [1] (HER dose 32 g a.i./ha), 10%. For the same compound, the “HER effect (crop damage, herbicide without safener)” value in data set [1] (HER dose 8 g a.i./ha) was found to be 20%; in data set [1] (HER dose 32 g a.i./ha), 67%. In addition, the “HER effect + SAF” value in data set [2] (setting [5]) was 0%; in data set [2] (setting [6]), 7%. Also, the HER effect in data set [2] (HER dose 8 g a.i./ha) was 20%; in data set [2] (HER dose 32 g a.i./ha), 67%.

Take `CC1(C(=O)NC2CC=C(C(=O)NS(C)(=O)=O)C2)CC(c2cc(F)cc(F)c2)=NO1` (mixture of isomers) [Example 1.61]: in data set [1] (HER dose 8 g a.i./ha), the “Reduction [%]” value was found to be 57%; the “Reduction [Difference]” value turned out to be 47; the “HER effect + SAF (crop damage with safener)” value is recorded as 35%; the “HER effect (crop damage, herbicide without safener)” value was 82%. Further, in data set [1] (HER dose 32 g a.i./ha), the “Reduction [%]” value is 44%; the “Reduction [Difference]” value is 40; the “HER effect + SAF (crop damage with safener)” value turned out to be 50%; the “HER effect (crop damage, herbicide without safener)” value stood at 90%.

Turning to `C=CC1(C(=O)NC2COC(C(=O)OCCCl)C2)CC(c2cc(F)cc(F)c2)=NO1` (mixture of isomers) [Example 1.82], in data set [1] (HER dose 2 g a.i./ha), the “Reduction [%]” value is 100%; the “Reduction [Difference]” value was 28; the “HER effect + SAF (crop damage with safener)” value is on record as 0%; the “HER effect (crop damage, herbicide without safener)” value is on record as 28%. In data set [1] (HER dose 8 g a.i./ha), the “Reduction [%]” value is recorded as 89%; the “Reduction [Difference]” value worked out at 83; the “HER effect + SAF (crop damage with safener)” value is 10%; the “HER effect (crop damage, herbicide without safener)” value turned out to be 93%. In data set [1] (HER dose 32 g a.i./ha), the “Reduction [%]” value amounted to 84%; the “Reduction [Difference]” value is given as 77; the “HER effect + SAF (crop damage with safener)” value was 15%; the “HER effect (crop damage, herbicide without safener)” value is on record as 92%.

The values are drawn from patent US20230240297A1, “SELECTIVE HERBICIDES BASED ON SUBSTITUTED ISOXAZOLIN CARBOXAMIDES AND CYPROSULFAMIDE” (Bayer Aktiengesellschaft, priority 2020, published 2023).
